Assay results taken from patent US11214540B2, “Compositions for treating neurodegenerative diseases” (COGNITION THERAPEUTICS, INC., priority 2017, dated 2022).

Legend:
[1] = target: Sigma-2 receptors on membranes from rat cerebral cortex (Rattus norvegicus (Rat), UniProt Q5U3Y7); assay: Competitive Radioligand Binding Assay 1, Sigma-2 binding ([3H]DTG displacement with (+)pentazocine mask); details: sigma-2 receptor affinity; read-out: S2 Ki
Protocol: Using the same protocol, some compounds for which membrane trafficking data are given in Table 1 were tested for recognition of sigma-2 receptor. Certain compounds preferentially bind to the sigma-2 receptor.
For Sigma-1 binding, various concentrations of test compounds from 100 μM to 1 nM were used to displace 8 nM [3H](+)pentazocine from endogenous receptors on Jurkat cell membranes (Ganapathy M E et al. 1991, J Pharmacol. Exp. Ther. 289:251-260). 10 μM Haloperidol was used to define non-specific binding. […] (Bowen W D, et al. 1993, Mol. Neuropharmcol 3:117-126). 10 μM Haloperidol was used to define non-specific binding. Reactions were terminated by rapid filtration through Whatman GF/C filters using a Brandel 12R cell harvester followed by two washes with ice-cold buffer. Radioactivity on the dried filter discs was measured using a liquid scintillation analyzer (Tri-Carb 2900TR; PerkinElmer Life and Analytical Sciences). The displacement curves were plotted and the Ki values of the test compounds for the receptor subtypes were determined using GraphPad Prism (GraphPad Software Inc., San Diego, Calif.). The percentage specific binding was determined by dividing the difference between total bound (disintegrations per minute) and nonspecific bound (disintegrations per minute) by the total bound (disintegrations per minute).
Affinities for Sigma-1 and Sigma-2 receptors are typically obtained from published studies using cerebral tissue homogenates with [3H](+)pentazocine to measure displacement from Sigma-1 receptors and [3H] 1,3-Di-(2-tolyl)guanidine in the presence of 300 nM (+)pentazocine to measure displacement from Sigma-2 receptors.

[2] = system: Abeta oligomer-induced membrane trafficking deficits in primary hippocampal neurons; assay: Membrane Trafficking/Exocytosis (MTT) assay, Abeta oligomer effect on neurons; format: cell-based, rat; details: membrane trafficking; read-out: EC50 Abeta;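 further: compound potency for inhibiting the Abeta oligomer effect on exocytosis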
Protocol: Compounds according to any embodiment described herein, were tested for their ability to inhibit an amyloid beta effect on the cells. The compounds generally were able to inhibit the amyloid beta effect as measured by a membrane trafficking/exocytosis assay (MTT assay). The rationale for this assay was as follows:
The present exocytosis assay was adapted for use with mature primary neuronal cultures grown for 3 weeks in vitro. See WO 2011/106785, which is incorporated herein by reference in its entirety. Abeta oligomers cause a dose-dependent decrease in the amount of intracellular vesicles (puncta) filled with reduced purple formazan as measured via image processing using a Cellomics VTI automated microscopy system. […] Increasing the amount of Abeta oligomers eventually results in overt toxicity. Thus, the concentration of neuroactive Abeta oligomers used in the assay is much lower than that causing cell death. […] When configured in this manner, the assay is able to detect compounds that inhibit nonlethal effects of Abeta oligomer whether these compounds act via disruption of oligomers, inhibition of oligomer binding to neurons, or counteraction of signal transduction mechanisms of action initiated by oligomer binding.
Primary hippocampal neurons from E18 Sprague-Dawley rat embryos were plated at optimized concentrations in 384 well plates in NB media (Invitrogen). Neurons were maintained in cultures for 3 weeks, with twice weekly feeding of NB media with N2 supplement (Invitrogen).
A test compound was added to cells at concentrations ranging from 100 uM to 0.001 nM followed by addition of vehicle or Abeta oligomer preparations (3 μM total Abeta protein concentration), and incubated for 1 to 24 hr at 37° C. in 5% CO2. MTT reagent (3-(4,5-dimethylthizaol-2yl)-2,5diphenyl tetrazolium bromide) (Roche Molecular Biochemicals) was reconstituted in phosphate buffered saline to 5 mg/mL. 10 μL of MTT labeling reagent is added to each well and incubated at 37° C. for 1 h, then imaged. Exocytosis was assessed by automated microscopy and image processing to quantify the amount of endocytosed and exocytosed formazan.
Each assay plate was formatted so that compounds are tested with and without Abeta oligomer on each plate. This design eliminates toxic or metabolically active compounds early on in the screening cascade (at the level of the primary screen). Reduced formazan was first visible in intracellular vesicles. Eventual formazan exocytosis was accelerated via Abeta oligomers.
Human amyloid peptide 1-42 was obtained from a number of commercial vendors such as California Peptide, with lot-choice contingent upon quality control analysis. Quality controls of oligomer preparations consist of Westerns to determine oligomer size ranges and relative concentrations, and the MTT assay to confirm exocytosis acceleration without toxicity. Toxicity was monitored in each image-based assay via quantification of nuclear morphology visualized with the DNA binding blue dye DAPI (Invitrogen). Nuclei that are fragmented are considered to be in late stage apoptosis (Majno and Joris '95) and the test would be rejected. Peptide lots producing unusual peptide size ranges or significant toxicity at a standard 1.5 μM concentration on neurons would also be rejected.
Data handling and analysis were accomplished by Cellomics VTI image analysis software and STORE automated database software. Because of the low dynamic range and neuronal well-to-well variability after three weeks in culture, statistical comparisons are made via pairwise Tukey-Kramer analysis to determine the significance of the separation between compound+Abeta oligomers from Abeta alone, and between compound alone from vehicle. The ability of mature primary neurons to more closely approximate the electrophysiologically mediated signal transduction network of the adult brain justifies this screening strategy. […]

log P = format: physicochemical
How it was run: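 Ratio of un-ionized compound concentrations between octanol and water, with aqueous pH set so the un-ionized form predominates. Value given as the log of the octanol/water ratio.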

potassium channel hERG = potassium channel hERG (Homo sapiens (Human), UniProt Q12809); assay: In vitro testing for hERG inhibition; format: biochemical; details: in vitro toxicity potassium channel hERG
Chain of potassium channel hERG (Q12809 whole entry): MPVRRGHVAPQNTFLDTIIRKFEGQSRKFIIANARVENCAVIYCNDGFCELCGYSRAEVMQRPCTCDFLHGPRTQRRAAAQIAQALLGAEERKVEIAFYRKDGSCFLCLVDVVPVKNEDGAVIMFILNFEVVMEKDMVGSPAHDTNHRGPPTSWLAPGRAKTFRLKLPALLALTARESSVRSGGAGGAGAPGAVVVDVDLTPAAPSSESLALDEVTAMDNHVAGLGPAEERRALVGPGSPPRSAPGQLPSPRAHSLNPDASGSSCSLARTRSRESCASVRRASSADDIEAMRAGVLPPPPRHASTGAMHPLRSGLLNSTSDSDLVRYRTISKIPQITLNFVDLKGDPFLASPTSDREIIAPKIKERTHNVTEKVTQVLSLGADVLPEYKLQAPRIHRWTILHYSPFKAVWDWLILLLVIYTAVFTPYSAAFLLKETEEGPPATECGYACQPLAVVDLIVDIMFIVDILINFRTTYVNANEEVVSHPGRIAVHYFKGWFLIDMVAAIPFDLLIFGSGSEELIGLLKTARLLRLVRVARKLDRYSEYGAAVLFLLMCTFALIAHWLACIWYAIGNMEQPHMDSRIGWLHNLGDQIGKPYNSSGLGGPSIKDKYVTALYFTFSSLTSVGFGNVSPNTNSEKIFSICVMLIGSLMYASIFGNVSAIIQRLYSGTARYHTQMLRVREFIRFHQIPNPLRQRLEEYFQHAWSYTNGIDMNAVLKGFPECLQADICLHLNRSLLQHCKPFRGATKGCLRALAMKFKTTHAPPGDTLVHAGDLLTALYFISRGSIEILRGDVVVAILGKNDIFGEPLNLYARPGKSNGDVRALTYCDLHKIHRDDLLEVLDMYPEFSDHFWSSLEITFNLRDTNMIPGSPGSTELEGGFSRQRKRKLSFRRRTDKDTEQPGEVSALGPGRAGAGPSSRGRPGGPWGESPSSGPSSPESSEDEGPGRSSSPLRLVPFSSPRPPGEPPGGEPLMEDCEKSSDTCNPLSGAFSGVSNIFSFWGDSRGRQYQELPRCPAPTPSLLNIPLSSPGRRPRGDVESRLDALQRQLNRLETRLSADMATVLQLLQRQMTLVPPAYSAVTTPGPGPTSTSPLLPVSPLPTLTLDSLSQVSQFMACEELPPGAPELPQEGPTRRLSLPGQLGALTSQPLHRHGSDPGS
Protocol: In vitro testing for hERG inhibition was performed in a standard assay (See: Haverkamp W, Breithardt G, Carnm A J, Janse M J, Rosen M R, Antzelevitch C, Escande D, Franz M, Malik M, Moss A and Shah R. (2000) Eur Heat J 21 (15); 1216-31).

Chain of Sigma-2 receptors on membranes from rat cerebral cortex (Q5U3Y7 whole entry): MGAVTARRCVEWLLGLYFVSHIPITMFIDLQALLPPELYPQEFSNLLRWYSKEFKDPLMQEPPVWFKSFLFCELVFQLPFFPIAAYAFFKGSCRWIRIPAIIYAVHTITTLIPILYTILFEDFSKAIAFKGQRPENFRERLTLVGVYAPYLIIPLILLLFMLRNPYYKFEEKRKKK

| Ki [1] [µM] | log P (log P) | Structure (SMILES) | EC50 [2] [µM] | IC50 (potassium channel hERG) [µM] |
| --- | --- | --- | --- | --- |
| 0.00076 | 6.22 | CC(C)=CC(CC(C)(C)c1ccc(C)cc1)N1CCC(C2CCOCC2)CC1 (stereo not shown) [Compound 3] | 0.25 |  |
| 0.01 | 6.31 | CC(C)=CC(CC(C)(C)c1ccc(Cl)cc1)N1CCC(c2ccncc2)CC1 (stereo not shown) [Compound 24] | 20 |  |
| 0.032 | 6.37 | CC(C)=CC(CC(C)(C)c1ccc(Cl)cc1)N1CCC(c2ccc(S(C)(=O)=O)cc2)CC1 (stereo not shown) [Compound 32] | 6.9 |  |
| 0.033 | 7.04 | CC(C)=CC(CC(C)(C)c1ccc(C)cc1)N1CCC(C(C)C)CC1 (stereo not shown) [Compound 33] | 1.92 |  |
| 0.085 | 6.26 | CC(C)=CC(CC(C)(C)c1ccc(C)cc1)N1CCN(CC(C)C)CC1 (stereo not shown) [Compound 45] | 2.6 |  |
|  | 4.61 | CC(C)=CC(CC(C)(C)c1ccc(F)cc1)N1CCC(N2CCOCC2)CC1 (stereo not shown) [Compound 126] | 0.3 | 7.4 |
|  | 6.41 | CC(C)=CC(CC(C)(C)c1ccc(C(F)(F)F)cc1)N1CCC(N2CCCCC2)CC1 (stereo not shown) [Compound 127] | 0.3 | 3.3 |
|  | 5.13 | CC(C)=CC(CC(C)(C)c1ccc(C(F)(F)F)cc1)N1CCC(C)(O)CC1 (stereo not shown) [Compound 129] | 1.3 | 24 |
|  | 5.58 | CCOC1CCN(C(C=C(C)C)CC(C)(C)c2ccc(Cl)cc2)CC1 (stereo not shown) [Compound 136] | 1.5 | 2.1 |
|  | 4.87 | CC(C)=CC(CC(C)(C)c1ccc(OC(C)C)cc1)N1CCC(C)(O)CC1 (stereo not shown) [Compound 180] |  | 20 |
|  | 5.95 | CC(C)=CC(CC(C)(C)c1ccc(Cl)cc1)N1CCC(CCOC2CCOC2)CC1 (stereo not shown) [Compound 181] |  | 1.8 |
|  | 6.79 | COCCCC1CCN(C(C=C(C)C)CC(C)(C)c2ccc(OC(C)(C)C)cc2)CC1 (stereo not shown) [Compound 183] |  | 2.1 |
|  | 6.16 | CC(C)=CC(CC(C)(C)c1ccc(F)cc1)N1CCC2(CC1)OCc1ccccc12 (stereo not shown) [Compound 185] |  | 3 |
|  | 6.62 | CC(C)=CC(CC(C)(C)c1ccc(Cl)cc1)N1CCC2(CC1)OCc1ccccc12 (stereo not shown) [Compound 187] |  | 1 |
|  | 4 | CC(C)=CC(COc1ccc(Cl)cc1)N1CCC(CCO)CC1 (stereo not shown) [Compound 188] |  | 0.4 |
|  | 3.44 | CC1(O)CCN(CCC(C)(C)c2ccc(Cl)cc2)CC1 [Compound 192] |  | 19 |
|  | 6.2 | CC(C)=CC(CC(C)(C)c1ccc(Cl)cc1)N1CCN(C(=O)OCC(C)C)CC1 (stereo not shown) [Compound 198] |  | 4.8 |
|  | 4.22 | COC1CCN(C(C)CC(C)(C)c2ccc(Cl)cc2)CC1 (stereo not shown) [Compound 199] |  | 1.2 |
|  | 6.28 | CC(C)=CC(CC(C)(C)c1ccc(C(F)(F)F)cc1)N1CCN(C(=O)OC(C)(C)C)CC1 (stereo not shown) [Compound 200] |  | 83 |
|  | 3.97 | CC(C)=CC(CC(C)(C)c1ccccc1)N1CCC(O)CC1 (stereo not shown) [Compound 201] | 15 | 15 |

| Ki [1] [µM] | log P (log P) | Structure (SMILES) | EC50 [2] [µM] | IC50 (potassium channel hERG) [µM] |
| --- | --- | --- | --- | --- |
|  | 6.5 | CC(C)=CC(CC(C)(C)c1ccc(C(F)(F)F)cc1)N1CCC(O)(c2ccccc2)CC1 (stereo not shown) [Compound 205] | 0.59 | 3.9 |
|  | 4.79 | COCCC1(O)CCN(C(C=C(C)C)CC(C)(C)c2ccc(C(F)(F)F)cc2)CC1 (stereo not shown) [Compound 210] | 0.42 | 4.4 |
|  | 6.54 | CCCCC1(O)CCN(C(C=C(C)C)CC(C)(C)c2ccc(C(F)(F)F)cc2)CC1 (stereo not shown) [Compound 212] | 1.8 | 27 |
|  | 4.25 | CC(C)=CC(CC(C)(C)c1ccccc1)N1CCC(C)(O)CC1 (stereo not shown) [Compound 213] | 6.6 | 6.4 |
|  | 4.51 | COCCC1(O)CCN(C(C=C(C)C)CC(C)(C)c2ccc(Cl)cc2)CC1 (stereo not shown) [Compound 217] | 4.6 | 7.7 |
|  | 4.05 | COCCC1(O)CCN(C(C=C(C)C)CC(C)(C)c2ccc(F)cc2)CC1 (stereo not shown) [Compound 218] |  | 13 |
|  | 4.03 | CC(CC(C)(C)c1ccc(Cl)cc1)N1CCCC1CO (stereo not shown) [Compound 229] | 15 | 21 |
|  | 4.52 | CC(C)=CC(CC(C)(C)c1ccc(Cl)cc1)N1CC[C@H](O)C1 (stereo partly shown) [Compound 230] | 10 | 16 |
|  | 4.79 | CC(C)=CC(CC(C)(C)c1ccc(C(F)(F)F)cc1)N1CC[C@H](O)C1 (stereo partly shown) [Compound 232] | 15 | 29 |
|  | 3.79 | CC(CC(C)(C)c1ccc(C(F)(F)F)cc1)N1CC[C@H](O)C1 (stereo partly shown) [Compound 233] | 0.26 | 24 |
|  | 5.31 | CC(C)=CC(CC(C)(C)c1ccc(C(F)(F)F)cc1)N1CCC[C@H]1CO (stereo partly shown) [Compound 236] | 15 | 20 |
|  | 4.67 | COCC1CCCN1C(C)CC(C)(C)c1ccc(Cl)cc1 (stereo not shown) [Compound 238] | 15 | 13 |
|  | 5.04 | CC(C)=C[C@@H](CC(C)(C)c1ccc(Cl)cc1)N1CCC[C@@H]1CO [Compound 239] |  | 4.6 |
|  | 4.57 | CC(C)=C[C@H](CC(C)(C)c1ccc(F)cc1)N1CCC[C@@H]1CO [Compound 242] |  | 14 |
|  | 5.22 | COC[C@@H]1CCCN1[C@@H](C=C(C)C)CC(C)(C)c1ccc(F)cc1 [Compound 244] | 8.5 | 4.8 |
|  | 5.22 | COCC1CCCN1C(C=C(C)C)CC(C)(C)c1ccc(F)cc1 (stereo not shown) [Compound 245] | > 15 | 14 |
|  | 5.07 | COC[C@@H]1CCCN1[C@@H](C=C(C)C)CC(C)(C)c1ccccc1 [Compound 249] | 15 | 9.4 |
|  | 3.51 | CC(CC(C)(C)c1ccc(Cl)cc1)N1CCC(O)C1 (stereo not shown) [Compound 250] | 15 | 28 |
|  | 5.07 | COCC1CCCN1C(C=C(C)C)CC(C)(C)c1ccccc1 (stereo not shown) [Compound 252] | 15 | 7 |
|  | 4.95 | COC[C@H]1CCCN1[C@@H](C)CC(C)(C)c1ccc(C(F)(F)F)cc1 [Compound 254] |  | 5 |
